Source: patent US20250270191A1, “QUINOLONE BCL6 BIFUNCTIONAL DEGRADERS” (Treeline Biosciences, Inc., priority 2022, published 2025)

Assays:
[1] = target: T1, Human BCL6 protein (N-terminal HiBiT tagged BCL6 in HT1080 cells) (Homo sapiens, UniProt P41182+Q96SW2); assay: HiBiT based BCL6 degradation assay; format: cell-based; settings: HT1080 cells expressing N-terminal HiBiT tagged BCL6; 5 hours incubation; BCL6 degradation normalized with DMSO control
T1 construct: Human BCL6 protein coding open reading frame; expressed in transfected cells; host or cells: HT1080 (ATCC CCL-121), stably transduced with lentivirus pLV-UBC-N-HiBiT-BCL6-PGK-puro
Outline: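 HT1080 cells stably expressing N-terminal HiBiT-BCL6 were treated with compound dilution series for 5 h at 37° C. in RPMI 1640 with 10% FBS. HiBiT lytic luminescence read after 15 min; degradation normalized to DMSO, with curves fitted by four-parameter logistic model.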

[2] = Pharmacokinetic assessment in male CD-1 mice (IV and PO); format: in vivo; settings: mouse, plasma; for clearance: clearance (IV), commonly 1 mg/kg; for clearance / AUC(0-inf): non-compartmental model; for bioavailability: oral bioavailability, PO commonly 10 mg/kg vs IV commonly 1 mg/kg; for Cmax / AUC(0-inf): route not given
Experimental: Pharmacokinetics (PK) studies were conducted on male CD-1 mice by two delivery routes: intravenous (IV) injection and oral gavage (PO). Mice for the IV group (n=3) were allowed free access to food and water and mice for the PO group (n=3) were fasted 6-8 hours prior to dosing. The test articles were formulated in solution for the IV route (commonly 5% DMSO/10% Solutol HS15/85% water (pH 5)) and solution or suspension for the PO route (commonly 100% PEG400). On the day of the experiment, test article was administered via vein injection (commonly 1 mg/kg) for IV route or via oral gavage (commonly 10 mg/kg) for PO route, respectively. Blood samples were collected via the saphenous vein using a needle (commonly 20G) at 0.83 to 24 hours post dose. Approximately 30 μL of blood per timepoint was collected into pre-chilled tubes using K2EDTA as the anti-coagulant. After collection of blood samples at each time point, the blood samples were stored on ice. Blood samples were centrifuged within 0.5 hour of collection to separate plasma. Centrifugation was conducted at 2500×g for 15 minutes at 4° C. Plasma samples were immediately acidified (commonly 0.1M sodium citrate (pH=5) buffer). The samples were then submitted to LC-MS/MS for sample analysis. Pharmacokinetics parameters, including clearance (IV), area under the curve (AUC), and oral bioavailability (% F) were calculated by non-compartmental model.

| SMILES | Ymin (5 hr) [1] | other results |
| --- | --- | --- |
| CNC(=O)COc1cc2cc(Nc3nc(N4CCN(CC5CCN(c6ccc7c(C8CCC(=O)NC8=O)nn(C)c7c6)CC5)CC4)ncc3Cl)ccc2n(C)c1=O (stereo not drawn) [Compound 102, 2-((6-((5-chloro-2-(4-((1-(3-(2,6-dioxopiperidin-3-yl)-1-methyl-1H-indazol-6-yl)piperidin-4-yl)methyl)piperazin-1-yl)pyrimidin-4-yl)amino)-1-methyl-2-oxo-1,2-dihydroquinolin-3-yl)oxy)-N-methylacetamide] | +++ (25% < Ymin ≤ 50%) | clearance [2]: 10.8 mL/min/kg; bioavailability [2]: 67.5%; Cmax [2]: 2550 nM; AUC(0-inf) [2]: 13.5 µM·h |
| CNC(=O)COc1cc2cc(Nc3nc(N4CCC(CC5CCN(c6cccc7c(C8CCC(=O)NC8=O)nn(C)c67)CC5)CC4)ncc3Cl)ccc2n(C)c1=O (stereo not drawn) [Compound 281, 2-((6-((5-chloro-2-(4-((1-(3-(2,6-dioxopiperidin-3-yl)-1-methyl-1H-indazol-7-yl)piperidin-4-yl)methyl)piperidin-1-yl)pyrimidin-4-yl)amino)-1-methyl-2-oxo-1,2-dihydroquinolin-3-yl)oxy)-N-methylacetamide] | +++ (25% < Ymin ≤ 50%) |  |
| CC(=O)COc1cc2cc(Nc3nc(N4CCN(CC5CCN(c6cccc7c(C8CCC(=O)NC8=O)nn(C)c67)CC5)[C@@H](C)C4)ncc3Cl)ccc2n(C)c1=O (stereo partly drawn) [Compound 347a, 3-(7-(4-(((S)-4-(5-chloro-4-((1-methyl-2-oxo-3-(2-oxopropoxy)-1,2-dihydroquinolin-6-yl)amino)pyrimidin-2-yl)-2-methylpiperazin-1-yl)methyl)piperidin-1-yl)-1-methyl-1H-indazol-3-yl)piperidine-2,6-dione] | ++++ (Ymin ≤ 25%) |  |
| CNC(=O)COc1cc2cc(Nc3nc(N4C[C@@H](C)N(CC5CCN(c6cccc7c(C8CCC(=O)NC8=O)nn(C)c67)CC5)[C@@H](C)C4)ncc3Cl)ccc2n(C)c1=O (stereo partly drawn) [Compound 336a, 2-((6-((5-chloro-2-((3S,5R)-4-((1-(3-(2,6-dioxopiperidin-3-yl)-1-methyl-1H-indazol-7-yl)piperidin-4-yl)methyl)-3,5-dimethylpiperazin-1-yl)pyrimidin-4-yl)amino)-1-methyl-2-oxo-1,2-dihydroquinolin-3-yl)oxy)-N-methylacetamide] | ++++ (Ymin ≤ 25%) |  |
| CNC(=O)COc1cc2cc(Nc3nc(N4CCC(CC5CCN(c6ccc7c(C8CCC(=O)NC8=O)nn(C)c7c6)CC5)CC4)ncc3Cl)ccc2n(C)c1=O (stereo not drawn) [Compound 288, 2-((6-((5-chloro-2-(4-((1-(3-(2,6-dioxopiperidin-3-yl)-1-methyl-1H-indazol-6-yl)piperidin-4-yl)methyl)piperidin-1-yl)pyrimidin-4-yl)amino)-1-methyl-2-oxo-1,2-dihydroquinolin-3-yl)oxy)-N-methylacetamide] | +++ (25% < Ymin ≤ 50%) |  |
| CNC(=O)COc1cc2cc(Nc3nc(N4CCC(CN5CCN(c6ccc7c(C8CCC(=O)NC8=O)nn(C)c7c6)CC5)CC4)ncc3Cl)ccc2n(C)c1=O (stereo not drawn) [Compound 334, 2-((6-((5-chloro-2-(4-((4-(3-(2,6-dioxopiperidin-3-yl)-1-methyl-1H-indazol-6-yl)piperazin-1-yl)methyl)piperidin-1-yl)pyrimidin-4-yl)amino)-1-methyl-2-oxo-1,2-dihydroquinolin-3-yl)oxy)-N-methylacetamide] | ++++ (Ymin ≤ 25%) |  |
| CNC(=O)COc1cc2cc(Nc3nc(N4CCC[C@H]4CNc4cccc5c(C6CCC(=O)NC6=O)nn(C)c45)ncc3Cl)ccc2n(C)c1=O (stereo partly drawn) [Compound 300b, 2-((6-((5-chloro-2-((2S)-2-(((3-(2,6-dioxopiperidin-3-yl)-1-methyl-1H-indazol-7-yl)amino)methyl)pyrrolidin-1-yl)pyrimidin-4-yl)amino)-1-methyl-2-oxo-1,2-dihydroquinolin-3-yl)oxy)-N-methylacetamide] | + (Ymin > 70%) |  |
| CNC(=O)COc1cc2cc(Nc3nc(NC[C@H]4CC[C@@H](Nc5ccc6c(C7CCC(=O)NC7=O)nn(C)c6c5)CC4)ncc3Cl)ccc2n(C)c1=O (stereo partly drawn) [Compound 289a, 2-((6-((5-chloro-2-((((1s,4s)-4-((3-(2,6-dioxopiperidin-3-yl)-1-methyl-1H-indazol-6-yl)amino)cyclohexyl)methyl)amino)pyrimidin-4-yl)amino)-1-methyl-2-oxo-1,2-dihydroquinolin-3-yl)oxy)-N-methylacetamide] | + (Ymin > 70%) |  |
| CNC(=O)COc1cc2cc(Nc3nc(NC[C@H]4CC[C@@H](Nc5cccc6c(C7CCC(=O)NC7=O)nn(C)c56)CC4)ncc3Cl)ccc2n(C)c1=O (stereo partly drawn) [Compound 304a, 2-((6-((5-chloro-2-((((1s,4s)-4-((3-(2,6-dioxopiperidin-3-yl)-1-methyl-1H-indazol-7-yl)amino)cyclohexyl)methyl)amino)pyrimidin-4-yl)amino)-1-methyl-2-oxo-1,2-dihydroquinolin-3-yl)oxy)-N-methylacetamide] | ++ (50% < Ymin ≤ 70%) |  |
| CNC(=O)COc1cc2cc(Nc3nc(N4CCC[C@H](CNc5ccc(C6CCC(=O)NC6=O)cc5)C4)ncc3Cl)ccc2n(C)c1=O (stereo partly drawn) [Compound 106a, 2-((6-((5-chloro-2-((3R)-3-(((4-(2,6-dioxopiperidin-3-yl)phenyl)amino)methyl)piperidin-1-yl)pyrimidin-4-yl)amino)-1-methyl-2-oxo-1,2-dihydroquinolin-3-yl)oxy)-N-methylacetamide] | ++ (50% < Ymin ≤ 70%) |  |
| CNC(=O)COc1cc2cc(Nc3nc(N4CCC(CCNc5cccc(C6CCC(=O)NC6=O)c5)CC4)ncc3Cl)ccc2n(C)c1=O (stereo not drawn) [Compound 263, 2-((6-((5-chloro-2-(4-(2-((3-(2,6-dioxopiperidin-3-yl)phenyl)amino)ethyl)piperidin-1-yl)pyrimidin-4-yl)amino)-1-methyl-2-oxo-1,2-dihydroquinolin-3-yl)oxy)-N-methylacetamide] | ++ (50% < Ymin ≤ 70%) |  |
| CNC(=O)COc1cc2cc(Nc3nc(N4CCC[C@@H](COc5cccc6c(C7CCC(=O)NC7=O)nn(C)c56)C4)ncc3Cl)ccc2n(C)c1=O (stereo partly drawn) [Compound 301b, 2-((6-((5-chloro-2-((3R)-3-(((3-(2,6-dioxopiperidin-3-yl)-1-methyl-1H-indazol-7-yl)oxy)methyl)piperidin-1-yl)pyrimidin-4-yl)amino)-1-methyl-2-oxo-1,2-dihydroquinolin-3-yl)oxy)-N-methylacetamide] | ++ (50% < Ymin ≤ 70%) |  |
| CNC(=O)COc1cc2cc(Nc3nc(N4CC5CCC(Nc6cccc7c(C8CCC(=O)NC8=O)nn(C)c67)CC5C4)ncc3Cl)ccc2n(C)c1=O (stereo not drawn) [Compound 339, 2-((6-((5-chloro-2-(5-((3-(2,6-dioxopiperidin-3-yl)-1-methyl-1H-indazol-7-yl)amino)octahydro-2H-isoindol-2-yl)pyrimidin-4-yl)amino)-1-methyl-2-oxo-1,2-dihydroquinolin-3-yl)oxy)-N-methylacetamide] | ++ (50% < Ymin ≤ 70%) |  |
| CNC(=O)COc1cc2cc(Nc3nc(N4CCC(CCCCOc5ccc6c(C7CCC(=O)NC7=O)nn(C)c6c5)CC4)ncc3Cl)ccc2n(C)c1=O (stereo not drawn) [Compound 319, 2-((6-((5-chloro-2-(4-(4-((3-(2,6-dioxopiperidin-3-yl)-1-methyl-1H-indazol-6-yl)oxy)butyl)piperidin-1-yl)pyrimidin-4-yl)amino)-1-methyl-2-oxo-1,2-dihydroquinolin-3-yl)oxy)-N-methylacetamide] | ++ (50% < Ymin ≤ 70%) |  |
| CNC(=O)COc1cc2cc(Nc3nc(N4CCC[C@@H](CCNc5ccc6c(C7CCC(=O)NC7=O)nn(C)c6c5)C4)ncc3Cl)ccc2n(C)c1=O (single isomer, unassigned) [Compound 290b] | +++ (25% < Ymin ≤ 50%) |  |
| CNC(=O)COc1cc2cc(Nc3nc(N4CCN(CC5CCN(c6cccc7c(C8CCC(=O)NC8=O)nn(C)c67)CC5)CC4)ncc3Cl)ccc2n(C)c1=O (stereo not drawn) [Compound 101, 2-((6-((5-chloro-2-(4-((1-(3-(2,6-dioxopiperidin-3-yl)-1-methyl-1H-indazol-7-yl)piperidin-4-yl)methyl)piperazin-1-yl)pyrimidin-4-yl)amino)-1-methyl-2-oxo-1,2-dihydroquinolin-3-yl)oxy)-N-methylacetamide] | ++++ (Ymin ≤ 25%) | clearance [2]: 12.8 mL/min/kg; bioavailability [2]: 76.4%; Cmax [2]: 3400 nM; AUC(0-inf) [2]: 12.6 µM·h |
